Results taken from ChEMBL document CHEMBL2040547, “Synthesis of natural flutimide and analogous fully substituted pyrazine-2,6-diones, endonuclease inhibitors of influenza virus” (J Org Chem, 2001).

Target: Polymerase acidic protein (Influenza A virus (A/Puerto Rico/8/1934(H1N1)), UniProt P03433)
Experiment: Inhibition of cap 1 ALMV primed Influenza transcriptase

| Compound | IC50 [µM] |
| --- | --- |
| CC(C)CC1=N/C(=C\c2ccc(F)cc2)C(=O)NC1=O | > 200 |
| CC(C)/C=C1\N=C(CC(C)C)C(=O)N(O)C1=O | 5.1 |
| COCON1C(=O)C(CC(C)C)=N/C(=C\C(C)C)C1=O | > 200 |
| COCON1C(=O)[C@H]([C@H](O)C(C)C)N(Cc2ccccc2)[C@@H](CC(C)C)C1=O | > 200 |
| COCON1C(=O)[C@H]([C@H](O)C(C)C)N(Cc2ccccc2)[C@@H](Cc2ccccc2)C1=O | > 200 |
| COCON1C(=O)[C@H]([C@@H](O)C(C)C)N(Cc2ccccc2)[C@@H](Cc2ccccc2)C1=O | > 200 |
| COCON1C(=O)/C(=C/c2ccccc2F)N(Cc2ccccc2)[C@@H](CC(C)C)C1=O | > 200 |
| COCON1C(=O)/C(=C\C(C)C)N(Cc2ccccc2)[C@@H](CC(C)C)C1=O | > 200 |
| COCON1C(=O)/C(=C\C(C)C)N(Cc2ccccc2)[C@@H](Cc2ccccc2)C1=O | > 200 |
| COCON1C(=O)C(CC(C)C)=N/C(=C\c2ccccc2)C1=O | > 200 |
| COCON1C(=O)C(CC(C)C)=N/C(=C\c2ccc(OC)cc2)C1=O | > 200 |
| COCON1C(=O)C(CC(C)C)=N/C(=C\c2ccc(F)cc2)C1=O | > 200 |
| COCON1C(=O)C(CC(C)C)=N/C(=C\c2cccc(F)c2)C1=O | > 200 |
| COCON1C(=O)C(CC(C)C)=N/C(=C\c2ccccc2F)C1=O | > 200 |
| COCON1C(=O)C(Cc2ccccc2)=N/C(=C\C(C)C)C1=O | > 200 |
| COCON1C(=O)C(Cc2ccccc2)=N/C(=C\c2ccc(OC)cc2)C1=O | > 200 |
| COCON1C(=O)C(Cc2ccccc2)=N/C(=C\c2ccc(F)cc2)C1=O | > 200 |
| O=C1C(Cc2ccccc2)NC(Cc2ccc(F)cc2)C(=O)N1O (stereo not drawn) | 85 |
